Source: patent US8299077B2 (Roche Palo Alto LLC, priority 2009, dated 2012)
pIC50: −log10 of the molar value.

System: B cell receptor-mediated activation of B cells in human blood (CD69 expression)
Test: Inhibition of B cell activation in whole blood measured by CD69 expression
Assay type: cell-based
Details: anti-IgM stimulation, 20 h, 50% decrease of CD69-positive cells that are also CD20-positive
Experimental: Inhibition of B Cell Activation in Whole Blood Measured by CD69 Expression
A procedure to test the ability of Btk inhibitors to suppress B cell receptor-mediated activation of B cells in human blood is as follows:
Human whole blood (HWB) is obtained from healthy volunteers, with the following restrictions: 24 hr drug-free, non-smokers. Blood is collected by venipuncture into Vacutainer tubes anticoagulated with sodium heparin. Test compounds are diluted to ten times the desired starting drug concentration in PBS (20×), followed by three-fold serial dilutions in 10% DMSO in PBS to produce a nine point dose-response curve. 5.5 μl of each compound dilution is added in duplicate to a 2 ml 96-well V bottom plate (Analytical Sales and Services, #59623-23); 5.5 μl of 10% DMSO in PBS is added to control and no-stimulus wells. HWB (100 μl) is added to each well, and after mixing the plates are incubated at 37 C, 5% CO2, 100% humidity for 30 minutes. Goat F(ab′)2 anti-human IgM (Southern Biotech, #2022-14) (10 μl of a 500 μg/ml solution, 50 μg/ml final concentration) is added to each well (except the no-stimulus wells) with mixing and the plates are incubated for an additional 20 hours.
At the end of the 20 hour incubation, samples are incubated with florescent-probe-labeled anti-bodies (15 μl PE Mouse anti-Human CD20, BD Pharmingen, #555623, and/or 20 ul APC Mouse anti-Human CD69, BD Pharmingen #555533) for 30 minutes, at 37 C, 5% CO2, 100% humidity. Included are induced control, unstained and single stains for compensation adjustments and initial voltage settings. Samples are then lysed with 1 ml of 1× Pharmingen Lyse Buffer (BD Pharmingen #555899), and plates are centrifuged at 1800 rpm for 5 minutes. Supernatants are removed via suction and the remaining pellets are lysed again with another 1 ml of 1× Pharmingen Lyse Buffer, and plates are spun down as before. Supernatants are aspirated and remaining pellets are washed in FACs buffer (PBS+1% FBS). After a final spin, the supernantants are removed and pellets are resuspended in 180 μl of FACs buffer. Samples are transferred to a 96 well plate suitable to be run on the HTS 96 well system on the BD LSR II flow cytometer.
Using appropriate excitation and emission wavelengths for the fluorophores used, data are acquired and percent positive cell values are obtained using Cell Quest Software. Results are initially analyzed by FACS analysis software (Flow Jo). […] The IC50 values are calculated using XLfit software version 3, equation 201.

Structure (SMILES) | pIC50
Cn1cc(-c2cccc(-n3ncc4cc(C(C)(C)C)cc(F)c4c3=O)c2CO)cc(NC2=NCCO2)c1=O [Example I-40, 6-tert-Butyl-2-{3-[5-(4,5-dihydro-oxazol-2-ylamino)-1-methyl-6-oxo-1,6-dihydro-pyridin-3-yl]-2-hydroxymethyl-phenyl}-8-fluoro-2H-phthalazin-1-one] | 6.08
Cn1cc(-c2cccc(-n3ncc4cc(C(C)(C)C)cc(F)c4c3=O)c2CO)cc(Nc2ccc3c(n2)CCNC3)c1=O [Example I-41, 6-tert-Butyl-8-fluoro-2-{2-hydroxymethyl-3-[1-methyl-6-oxo-5-(5,6,7,8-tetrahydro-[1,6]naphthyridin-2-ylamino)-1,6-dihydro-pyridin-3-yl]-phenyl}-2H-phthalazin-1-one] | 7.48
CCNCc1ccc(Nc2cc(-c3cccc(-n4ncc5cc(C(C)(C)C)cc(F)c5c4=O)c3CO)cn(C)c2=O)nc1 [Example I-42, 6-tert-Butyl-2-{3-[5-(5-ethylaminomethyl-pyridin-2-ylamino)-1-methyl-6-oxo-1,6-dihydro-pyridin-3-yl]-2-hydroxymethyl-phenyl}-8-fluoro-2H-phthalazin-1-one] | 8.22
CC(C)NCc1ccc(Nc2cc(-c3cccc(-n4ncc5cc(C(C)(C)C)cc(F)c5c4=O)c3CO)cn(C)c2=O)nc1 [Example I-43, 6-tert-Butyl-8-fluoro-2-(2-hydroxymethyl-3-{5-[5-(isopropylamino-methyl)-pyridin-2-ylamino]-1-methyl-6-oxo-1,6-dihydro-pyridin-3-yl}-phenyl)-2H-phthalazin-1-one] | 7.82
Cn1cc(-c2cccc(-n3ncc4cc(C(C)(C)C)cc(F)c4c3=O)c2CO)cc(NC2=NCCCO2)c1=O [Example I-44, 6-tert-Butyl-2-{3-[5-(5,6-dihydro-4H-[1,3]oxazin-2-ylamino)-1-methyl-6-oxo-1,6-dihydro-pyridin-3-yl]-2-hydroxymethyl-phenyl}-8-fluoro-2H-phthalazin-1-one] | 5.76
Cn1cc(-c2cccc(-n3ncc4cc(C(C)(C)C)cc(F)c4c3=O)c2CO)cc(Nc2ccc(N3CC[N+](C)([O-])CC3)cn2)c1=O [Example I-45, 6-tert-Butyl-8-fluoro-2-(2-hydroxymethyl-3-{1-methyl-5-[5-(4-methyl-4-oxy-piperazin-1-yl)-pyridin-2-ylamino]-6-oxo-1,6-dihydro-pyridin-3-yl}-phenyl)-2H-phthalazin-1-one] | 5.65
CC1CCOC(Nc2cc(-c3cccc(-n4ncc5cc(C(C)(C)C)cc(F)c5c4=O)c3CO)cn(C)c2=O)=N1 (centres unmarked) [Example I-46, 6-tert-Butyl-8-fluoro-2-{2-hydroxymethyl-3-[1-methyl-5-(4-methyl-5,6-dihydro-4H-[1,3]oxazin-2-ylamino)-6-oxo-1,6-dihydro-pyridin-3-yl]-phenyl}-2H-phthalazin-1-one] | 5.37
CCNC(C)(C)c1ccc(Nc2cc(-c3cccc(-n4ncc5cc(C(C)(C)C)cc(F)c5c4=O)c3CO)cn(C)c2=O)nc1 [Example I-47, 6-tert-Butyl-2-(3-{5-[5-(1-ethylamino-1-methyl-ethyl)-pyridin-2-ylamino]-1-methyl-6-oxo-1,6-dihydro-pyridin-3-yl}-2-hydroxymethyl-phenyl)-8-fluoro-2H-phthalazin-1-one] | 8.22
CC(=O)NC(C)(C)c1ccc(Nc2cc(-c3cccc(-n4ncc5cc(C(C)(C)C)cc(F)c5c4=O)c3CO)cn(C)c2=O)nc1 [Example I-48, N-[1-(6-{5-[3-(6-tert-Butyl-8-fluoro-1-oxo-1H-phthalazin-2-yl)-2-hydroxymethyl-phenyl]-1-methyl-2-oxo-1,2-dihydro-pyridin-3-ylamino}-pyridin-3-yl)-1-methyl-ethyl]-acetamide] | 7.33
CC1CCN=C(Nc2cc(-c3cccc(-n4ncc5cc(C(C)(C)C)cc(F)c5c4=O)c3CO)cn(C)c2=O)O1 (centres unmarked) [Example I-49, 6-tert-Butyl-8-fluoro-2-{2-hydroxymethyl-3-[1-methyl-5-(6-methyl-5,6-dihydro-4H-[1,3]oxazin-2-ylamino)-6-oxo-1,6-dihydro-pyridin-3-yl]-phenyl}-2H-phthalazin-1-one] | 5.50
Cn1cc(-c2cccc(-n3ncc4cc(C(C)(C)C)cc(F)c4c3=O)c2CO)cc(Nc2ccn(C(C)(C)C)c(=O)n2)c1=O [Example I-50, 6-tert-Butyl-2-{3-[5-(1-tert-butyl-2-oxo-1,2-dihydro-pyrimidin-4-ylamino)-1-methyl-6-oxo-1,6-dihydro-pyridin-3-yl]-2-hydroxymethyl-phenyl}-8-fluoro-2H-phthalazin-1-one] | 7.36

Now from value to compound:

pIC50 | Structure (SMILES)
7.64 | Cn1cc(-c2cccc(-n3ccc4cc(C5CC5)cc(F)c4c3=O)c2CO)cc(Nc2ccc(C(=O)N3CCOCC3)cn2)c1=O [Example I-51, 6-Cyclopropyl-8-fluoro-2-(2-hydroxymethyl-3-{1-methyl-5-[5-(morpholine-4-carbonyl)-pyridin-2-ylamino]-6-oxo-1,6-dihydro-pyridin-3-yl}-phenyl)-2H-isoquinolin-1-one]
7.24 | Cn1cc(-c2cccc(-n3ccc4cc(C5CC5)cc(F)c4c3=O)c2CO)cc(Nc2ccc(N3CCNCC3)cn2)c1=O [Example I-52, 6-Cyclopropyl-8-fluoro-2-{2-hydroxymethyl-3-[1-methyl-6-oxo-5-(5-piperazin-1-yl-pyridin-2-ylamino)-1,6-dihydro-pyridin-3-yl]-phenyl}-2H-isoquinolin-1-one]
6.22 | Cn1cc(-c2cccc(-n3ccc4cc(C5CC5)cc(Cl)c4c3=O)c2CO)cc(Nc2ccc(C(=O)N3CCOCC3)cn2)c1=O [Example I-53, 8-Chloro-6-cyclopropyl-2-(2-hydroxymethyl-3-{1-methyl-5-[5-(morpholine-4-carbonyl)-pyridin-2-ylamino]-6-oxo-1,6-dihydro-pyridin-3-yl}-phenyl)-2H-isoquinolin-1-one]
7.85 | CN1CCN(c2ccc(Nc3cc(-c4cccc(-n5ccc6cc(C7CC7)cc(F)c6c5=O)c4CO)cn(C)c3=O)nc2)CC1 [Example I-54, 6-Cyclopropyl-8-fluoro-2-(2-hydroxymethyl-3-{1-methyl-5-[5-(4-methyl-piperazin-1-yl)-pyridin-2-ylamino]-6-oxo-1,6-dihydro-pyridin-3-yl}-phenyl)-2H-isoquinolin-1-one]
7.80 | CN1CCN(c2ccc(Nc3cc(-c4cccc(-n5ccc6cc(C7(C)CC7)cc(F)c6c5=O)c4CO)cn(C)c3=O)nc2)CC1 [Example I-55, 8-Fluoro-2-(2-hydroxymethyl-3-{1-methyl-5-[5-(4-methyl-piperazin-1-yl)-pyridin-2-ylamino]-6-oxo-1,6-dihydro-pyridin-3-yl}-phenyl)-6-(1-methyl-cyclopropyl)-2H-isoquinolin-1-one]
7.74 | Cn1cc(-c2cccc(-n3ccc4cc(C5CC5)cc(F)c4c3=O)c2CO)cc(Nc2ccc(N3CCC(C)(O)CC3)cn2)c1=O [Example I-57, 6-Cyclopropyl-8-fluoro-2-{2-hydroxymethyl-3-[5-(4-hydroxy-4-methyl-3,4,5,6-tetrahydro-2H-[1,3′]bipyridinyl-6′-ylamino)-1-methyl-6-oxo-1,6-dihydro-pyridin-3-yl]-phenyl}-2H-isoquinolin-1-one]
8.22 | Cn1cc(-c2cccc(-n3ccc4cc(C(C)(C)O)cc(F)c4c3=O)c2CO)cc(Nc2ccc(N3CCC(C)(O)CC3)cn2)c1=O [Example I-58, 8-Fluoro-6-(1-hydroxy-1-methyl-ethyl)-2-{2-hydroxymethyl-3-[5-(4-hydroxy-4-methyl-3,4,5,6-tetrahydro-2H-[1,3′]bipyridinyl-6′-ylamino)-1-methyl-6-oxo-1,6-dihydro-pyridin-3-yl]-phenyl}-2H-isoquinolin-1-one]
8.52 | CN1CCN(c2ccc(Nc3cc(-c4cccc(-n5ccc6cc(C(C)(C)O)cc(F)c6c5=O)c4CO)cn(C)c3=O)nc2)CC1 [Example I-59, 8-Fluoro-6-(1-hydroxy-1-methyl-ethyl)-2-(2-hydroxymethyl-3-{1-methyl-5-[5-(4-methyl-piperazin-1-yl)-pyridin-2-ylamino]-6-oxo-1,6-dihydro-pyridin-3-yl}-phenyl)-2H-isoquinolin-1-one]
7.80 | Cn1cc(-c2cccc(-n3ccc4cc(C5(C)CC5)cc(F)c4c3=O)c2CO)cc(Nc2ccc(C(=O)N3CCOCC3)cn2)c1=O [Example I-60, 8-Fluoro-2-(2-hydroxymethyl-3-{1-methyl-5-[5-(morpholine-4-carbonyl)-pyridin-2-ylamino]-6-oxo-1,6-dihydro-pyridin-3-yl}-phenyl)-6-(1-methyl-cyclopropyl)-2H-isoquinolin-1-one]
